Assay results taken from publication doi:10.1101/2025.01.28.635346v1 (bioRxiv, 2025).
Bridge positions count the residues as written; N and C are the ends. Side chains are listed from the residue outwards. Peptide text beside a SMILES is read from it. * marks the point of attachment. Butanoyl(4-(4-I-phenyl)) = O=C(CCCc1ccc(I)cc1)*; PEG2 = NCCOCCOCCC(=O)O

How the values were obtained:
HTR2B = HTR2B (Homo sapiens, UniProt P41595); assay: Safetyscan47 GPCR Calcium Flux, Agonist; format: cell-based; conditions: for Emax: read-out: Max Response
integrin αvβ3 = integrin αvβ3 (Homo sapiens, UniProt P05106+P06756); assay: ELISA competition assay, integrin αvβ3; format: binding
integrin αIIbβ3 = target: T1, integrin αIIbβ3 (Homo sapiens, UniProt P05106+P08514); assay: ELISA competition assay, integrin αIIbβ3; format: binding
T1 sequence (P08514 32-993 limits assumed): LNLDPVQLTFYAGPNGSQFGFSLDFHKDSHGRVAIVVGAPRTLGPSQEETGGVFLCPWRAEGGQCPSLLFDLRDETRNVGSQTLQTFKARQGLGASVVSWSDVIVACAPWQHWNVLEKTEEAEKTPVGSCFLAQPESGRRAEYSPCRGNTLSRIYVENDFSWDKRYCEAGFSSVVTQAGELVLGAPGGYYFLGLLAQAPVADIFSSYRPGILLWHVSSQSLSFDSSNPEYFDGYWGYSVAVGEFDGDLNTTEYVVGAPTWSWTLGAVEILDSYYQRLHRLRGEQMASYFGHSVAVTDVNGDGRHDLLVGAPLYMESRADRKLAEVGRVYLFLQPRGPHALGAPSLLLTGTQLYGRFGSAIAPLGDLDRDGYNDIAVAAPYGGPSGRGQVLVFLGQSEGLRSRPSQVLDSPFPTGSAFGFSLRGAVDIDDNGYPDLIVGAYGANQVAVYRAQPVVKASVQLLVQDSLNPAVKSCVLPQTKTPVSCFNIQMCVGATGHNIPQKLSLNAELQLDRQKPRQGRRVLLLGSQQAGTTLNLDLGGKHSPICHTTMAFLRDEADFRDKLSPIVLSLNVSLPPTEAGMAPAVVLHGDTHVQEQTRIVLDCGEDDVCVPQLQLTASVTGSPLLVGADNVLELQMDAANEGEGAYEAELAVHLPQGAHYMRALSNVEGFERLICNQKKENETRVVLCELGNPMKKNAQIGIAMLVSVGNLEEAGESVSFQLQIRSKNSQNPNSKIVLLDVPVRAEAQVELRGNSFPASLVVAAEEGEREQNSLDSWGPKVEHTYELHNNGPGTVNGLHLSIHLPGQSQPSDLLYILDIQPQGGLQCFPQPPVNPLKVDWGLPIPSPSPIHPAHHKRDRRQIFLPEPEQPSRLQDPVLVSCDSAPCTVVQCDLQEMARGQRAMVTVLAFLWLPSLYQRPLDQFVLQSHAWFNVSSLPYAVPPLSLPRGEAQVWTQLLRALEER
T1 sequence (P05106 27-718 limits assumed): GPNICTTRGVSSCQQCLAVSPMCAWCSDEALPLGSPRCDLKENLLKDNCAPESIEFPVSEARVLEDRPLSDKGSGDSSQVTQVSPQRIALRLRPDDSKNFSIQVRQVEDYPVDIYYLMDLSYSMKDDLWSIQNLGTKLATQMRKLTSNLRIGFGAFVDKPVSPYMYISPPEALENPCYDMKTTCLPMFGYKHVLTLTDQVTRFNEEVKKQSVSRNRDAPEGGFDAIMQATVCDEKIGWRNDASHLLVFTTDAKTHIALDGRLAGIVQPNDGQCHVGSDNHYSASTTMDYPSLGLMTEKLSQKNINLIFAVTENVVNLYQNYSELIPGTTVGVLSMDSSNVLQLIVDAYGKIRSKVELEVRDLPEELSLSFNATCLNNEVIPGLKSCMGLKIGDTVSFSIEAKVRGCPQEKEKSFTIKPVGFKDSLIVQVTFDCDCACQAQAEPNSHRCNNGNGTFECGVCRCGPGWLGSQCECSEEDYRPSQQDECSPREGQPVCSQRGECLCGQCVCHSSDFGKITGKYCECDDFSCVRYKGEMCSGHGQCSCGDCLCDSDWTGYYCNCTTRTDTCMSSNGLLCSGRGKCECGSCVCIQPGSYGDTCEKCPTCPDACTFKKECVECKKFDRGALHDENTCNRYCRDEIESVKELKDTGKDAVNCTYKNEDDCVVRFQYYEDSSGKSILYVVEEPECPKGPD

GABAA = GABAA (Homo sapiens, UniProt P14867+P18507+P47870); assay: Safetyscan47 Ion Channel, Blocker; format: cell-based; conditions: for Emax: read-out: Max Response
AChE = AChE (Homo sapiens, UniProt P22303); assay: Safetyscan47 Non-Kinase Enzymes Enzymatic, Inhibitor; format: biochemical; conditions: for Emax: read-out: Max Response
CHRM1 = target: T2, CHRM1 (Homo sapiens, UniProt P11229); assay: Safetyscan47 GPCR Calcium Flux, Antagonist; format: cell-based; conditions: for Emax: read-out: Max Response
T2 sequence (P11229 1-460): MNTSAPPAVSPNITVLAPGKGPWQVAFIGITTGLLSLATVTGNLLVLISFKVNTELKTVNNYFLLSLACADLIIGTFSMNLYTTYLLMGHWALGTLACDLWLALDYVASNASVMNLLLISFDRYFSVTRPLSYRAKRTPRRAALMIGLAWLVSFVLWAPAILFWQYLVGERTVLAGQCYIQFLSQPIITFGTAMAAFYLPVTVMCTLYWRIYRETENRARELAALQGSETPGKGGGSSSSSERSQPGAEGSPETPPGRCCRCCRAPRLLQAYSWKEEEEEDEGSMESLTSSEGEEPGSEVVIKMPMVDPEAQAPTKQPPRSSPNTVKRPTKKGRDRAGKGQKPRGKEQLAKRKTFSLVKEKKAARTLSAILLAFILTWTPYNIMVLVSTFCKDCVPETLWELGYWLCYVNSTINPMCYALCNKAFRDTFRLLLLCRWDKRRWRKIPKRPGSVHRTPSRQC

PDE4D2 = PDE4D2 (Homo sapiens, UniProt Q08499); assay: Safetyscan47 Non-Kinase Enzymes Enzymatic, Inhibitor; format: biochemical; conditions: for Emax: read-out: Max Response
DRD1 = DRD1 (Homo sapiens, UniProt P21728); assay: Safetyscan47 GPCR cAMP, Antagonist; format: cell-based; conditions: for Emax: read-out: Max Response
HTR2A = HTR2A (Homo sapiens, UniProt P28223); assay: Safetyscan47 GPCR Calcium Flux, Agonist; format: cell-based; conditions: for Emax: read-out: Max Response

| SMILES | EC50 (HTR2B) | Emax (HTR2B) | IC50 (integrin αvβ3) | IC50 (integrin αIIbβ3) | IC50 (GABAA) | Emax (GABAA) | IC50 (AChE) | Emax (AChE) | IC50 (CHRM1) | Emax (CHRM1) | IC50 (PDE4D2) | Emax (PDE4D2) | IC50 (DRD1) | Emax (DRD1) | EC50 (HTR2A) | Emax (HTR2A) |
| --- | --- | --- | --- | --- | --- | --- | --- | --- | --- | --- | --- | --- | --- | --- | --- | --- |
| CC[C@H](C)[C@H](NC(=O)[C@H](CC(C)C)NC(=O)[C@H](CC(=O)O)NC(=O)CNC(=O)[C@H](CCCNC(=N)N)NC(=O)[C@@H](NC(=O)[C@H](Cc1ccccc1)NC(=O)[C@H](Cc1ccc(O)cc1)NC(=O)[C@@H]1CCC(=O)NCC(=O)NCC(=O)N[C@@H](CCCNC(=N)N)C(=O)NCC(=O)N[C@@H](Cc2c[nH]cn2)C(=O)N[C@@H](C(C)C)C(=O)N2CCC[C@H]2C(=O)N1)C(C)C)C(=O)N[C@@H](CO)C(=O)N[C@@H](Cc1ccccc1)C(=O)N[C@@H](Cc1ccc(O)cc1)C(=O)N[C@@H](CCCCN)C(=O)O [lassotide 36] (GGRGHVPEYFVRGDLISFYK-OH; lactam N-8) | > 45 µM | 0% | 0.343 µM | 0.332 µM | > 45 µM | 0% | > 45 µM | 0% | > 45 µM | 8.3% | > 45 µM | 0% | > 45 µM | 11.1% | > 45 µM | 1.7% |
| CC[C@H](C)[C@H](NC(=O)[C@H](CC(C)C)NC(=O)[C@H](CC(=O)O)NC(=O)CNC(=O)[C@H](CCCNC(=N)N)NC(=O)[C@@H](NC(=O)[C@H](Cc1ccccc1)NC(=O)[C@H](Cc1ccc(O)cc1)NC(=O)[C@@H]1CCC(=O)NCC(=O)NCC(=O)N[C@@H](CCCNC(=N)N)C(=O)NCC(=O)N[C@@H](Cc2c[nH]cn2)C(=O)N[C@@H](C(C)C)C(=O)N2CCC[C@H]2C(=O)N1)C(C)C)C(=O)N[C@@H](CO)C(=O)N[C@@H](Cc1ccccc1)C(=O)N[C@@H](Cc1ccc(O)cc1)C(=O)N[C@@H](CCCCNC(=O)CCOCCOCCNC(=O)CCCc1ccc(I)cc1)C(=O)O [lassotide 47] (GGRGHVPEYFVRGDLISFYK([PEG2-Butanoyl(4-(4-I-phenyl))])-OH; lactam N-8) | > 45 µM | 0% | 1 µM | 1.49 µM | > 45 µM | 0% | > 45 µM | 7.88% | > 45 µM | 0% | > 45 µM | 28.5% | > 45 µM | 35.1% | > 45 µM | 3.54% |
